Measured values as given in EP0313908A2, “Halogen-substituted phenoxyphenylpropionic acid derivatives” (BAYER AG, priority 1987, dated 1989).

Assays:
[1] = test system: Unkräuter, wie z. B. Amaranthus, Chenopodium, Ipomoea, Portulak und Solanum; experiment: Post-emergence test (herbicidal action on weeds); format: in vivo; details: post-emergence spray on test plants 5 - 15 cm high, 2000 l Wasser/ha; damage rated after three weeks against untreated control; stated in comparison with Vergleichssubstanz (A)
Source text: (§1) Post-emergence-Test Lösungsmittel: 5 Gewichtsteile Aceton Emulgator: 1 Gewichtsteil Alkylarylpolyglykolether
(§2) Zur Herstellung einer zweckmäßigen Wirkstoffzubereitung vermischt man 1 Gewichtsteil Wirkstoff mit der angegebenen Menge Lösungsmittel, gibt die angegebene Menge Emulgator zu und verdünnt das Konzentrat mit Wasser auf die gewünschte Konzentration.
(§3) Mit der Wirkstoffzubereitung spritzt man Testpflanzen, welch eine Höhe von 5 - 15 cm haben so, daß die jeweils gewünschten Wirkstoffmengen pro Flächeneinheit ausgebracht werden. Die Konzentration der Spritzbrühe wird so gewählt, daß in 2000 l Wasser/ha die jeweils gewünschten Wirkstoffmengen ausgebracht werden. Nach drei Wochen wird der Schädigungsgrad der Pflanzen bonitiert in % Schädigung im Vergleich zur Entwicklung der unbehandelten Kontrolle. Es bedeuten: 0 % = keine Wirkung (wie unbehandelte Kontrolle) 100 % = totale Vernichtung

Mais = details: in vivo
Source text: as §1, §2, §3

Baumwollpflanzen = experiment: Defoliation and desiccation of the leaves of cotton; format: in vivo, Baumwolle; details: cotton plants in the greenhouse, 5th leaf fully unfolded, sprayed dripping wet; rated after 1 week against control plants (scale 0, +, ++, +++)
Source text: Entlaubung und Austrocknung der Blätter bei Baumwolle
Lösungsmittel: 30 Gewichtsteile Dimethylformamid Emulgator: 1 Gewichtsteil Polyoxyethylen-Sorbitan-Monolaurat
Zur Herstellung einer zweckmäßigen Wirkstoffzubereitung vermischt man 1 Gewichtsteil Wirkstoff mit den angegebenen Mengen Lösungsmittel und Emulgator und füllt mit Wasser auf die gewünschte Konzentration auf.
Baumwollpflanzen werden im Gewächshaus bis zur vollen Entfaltung des 5. Folgeblattes angezogen. In diesem Stadium werden die Pflanzen tropfnaß mit den Wirkstoffzubereitungen besprüht. Nach 1 Woche werden der Blattfall und das Austrocknen der Blätter im Vergleich zu den Kontrollpflanzen bonitiert. Es bedeuten: 0 kein Austrocknen der Blätter, kein Blattfall + leichtes Austrocknen der Blätter, geringer Blattfall ++ starkes Austrocknen der Blätter, starker Blattfall +++ sehr starkes Austrocknen der Blätter, sehr starker Blattfall

Compound | Wirkung gegen Unkräuter [1] | Selektivität in Mais (Mais) | Austrocknen der Blätter (Baumwollpflanzen) | Blattfall (Baumwollpflanzen)
COC(=O)C(Cl)Cc1cc(Oc2c(Cl)cc(C(F)(F)F)cc2Cl)ccc1Cl (stereo not drawn) [Beispiel 1, 2-Chlor-3-[3-(2,6-dichlor-4-trifluormethyl-phenoxy)-6-chlor-phenyl]-propionsäure-methylester] | erheblich stärkere Wirkung | guter Selektivität | sehr starkes | sehr starken
COC(=O)C(Br)Cc1cc(Oc2c(Cl)cc(C(F)(F)F)cc2Cl)c(Cl)cc1Cl (stereo not drawn) [Beispiel 2, 2-Brom-3-[3-(2,6-dichlor-4-trifluormethyl-phenoxy)-4,6-dichlorphenyl]-propionsäuremethylester] | erheblich stärkere Wirkung | guter Selektivität | – | –
COC(=O)CCc1cc(Oc2c(Cl)cc(C(F)(F)F)cc2Cl)ccc1Cl [Beispiel 3, 3-[3-(2,6-dichlor-4-trifluormethyl-phenoxy)-6-chlor-phenyl]-propionsäuremethylester] | erheblich stärkere Wirkung | guter Selektivität | sehr starkes | sehr starken
COC(=O)CC(Br)c1cc(Oc2c(Cl)cc(C(F)(F)F)cc2Cl)ccc1Cl (stereo not drawn) [Beispiel 4, 3-Brom-3-[3-(2,6-dichlor-4-trifluormethyl-phenoxy)-6-chlorphenyl]-propionsäuremethylester] | erheblich stärkere Wirkung | guter Selektivität | – | –
